{"source": "patent US10137239B2", "about": "“Systems and methods for monitoring time based photo active agent delivery or photo active marker presence” (Avedro, Inc., priority 2011, dated 2018)", "experiment": "Effect of a quenching agent on Riboflavin fluorescence in the eye after Riboflavin pre-soak", "design": "species or system porcine", "conditions": "1% ascorbic acid drops for 5, 10, 15 min after 30 min pre-soak with 0.1% Riboflavin-5-phosphate in saline; control distilled water; FIGS. 14, 15A, 15B", "protocol": "In an experimental setup, the Galilei Dual Scheimpflug Analyzer from Ziemer was used to perform experiments to detect the presence of Riboflavin in porcine corneas through a filter in front of one of the detectors in the Scheimpflug analyzer. The Dual Scheimpflug Analyzer has two detectors that rotate 180° taking several spokes (ranging from 16 to 60 spokes) of the corneal tissue illuminated by 470 nm light through a slit lamp aperture.\nA Straw colored filter (Cinegel, Rosco) is used to filter the exciting light (i.e., the 470 nm light), while allowing the fluorescence (i.e., the 525 nm light) to reach the detector. This is illustrated by the graph shown in FIG. 11B, which illustrates the transmission spectrum for the Straw colored filter utilized.\nHowever, as discussed above, several different substances can be utilized as quenching agents to inhibit the photo-activation of a cross-linking agent, or to degrade the cross-linking agent such that it is no longer photo-active. […] After the pre-soak, the eye was placed in front of the Scheimpflug analyzer and another image (or series of images) was captured to determine the distribution of Riboflavin based on the detected pattern of fluorescence within the cornea. […]\nTo analyze the effects described above, images from the Scheimpflug image capture system were exported and analyzed. […]", "data": [{"molecule": "O=C1O[C@H]([C@@H](O)CO)C(O)=C1O", "note": "[ascorbic acid]", "values": [{"measurement": "maximum fluorescence intensity observed with the Scheimpflug imager", "value": "considerably decreases the maximum fluorescence intensity"}]}]}
